Measurements: ChEMBL document CHEMBL1671617, “Correlation of antimicrobial resistance with beta-lactamases, the OmpA-like porin, and efflux pumps in clinical isolates of Acinetobacter baumannii endemic to New York City” (2008)
Converted amounts (≈) assume the structure as drawn.

Assays:
Type in all cases: functional
Acinetobacter baumannii [1] = assay: Antimicrobial activity against ISAba1 linked with the blaOXA-51-type beta-lactamase harboring Acinetobacter baumannii beta clonal group isolate 17 expressing ompA, adeB, adeM, aacA4, blaSHV-5 by Etest method
Acinetobacter baumannii [2] = assay: Antimicrobial activity against Acinetobacter baumannii alpha clonal group isolate 3 expressing ampC, ompA, adeB, adeM, aacC1, aadA1 by Etest method
Acinetobacter baumannii [3] = assay: Antimicrobial activity against Acinetobacter baumannii lambda clonal group isolate 27 expressing ampC, ompA, adeB, adeM, aadB, aadA1 by Etest method
Acinetobacter baumannii [4] = assay: Antimicrobial activity against ISAba1 linked with the blaOXA-51-type beta-lactamase harboring Acinetobacter baumannii zeta clonal group isolate 19 expressing ampC, ompA, adeB, adeM, aacC2 by Etest method
Acinetobacter baumannii [5] = assay: Antimicrobial activity against Acinetobacter baumannii unique clonal group isolate 39 expressing ampC, ompA, adeM by Etest method
Acinetobacter baumannii [6] = assay: Antimicrobial activity against ISAba1 linked with the blaOXA-51-type beta-lactamase harboring Acinetobacter baumannii beta clonal group isolate 9 expressing ampC, ompA, adeB, adeM by Etest method
Acinetobacter baumannii [7] = assay: Antimicrobial activity against ISAba1 linked with the blaOXA-51-type beta-lactamase harboring Acinetobacter baumannii lambda clonal group isolate 29 expressing ampC, ompA, adeM, aadB, aadA1 by Etest method
Acinetobacter baumannii [8] = assay: Antimicrobial activity against Acinetobacter baumannii nu clonal group isolate 33 expressing ampC, ompA, adeB, adeM by Etest method
Acinetobacter baumannii [9] = assay: Antimicrobial activity against ISAba1 linked with the blaOXA-51-type beta-lactamase harboring Acinetobacter baumannii beta clonal group isolate 16 expressing ompA, adeB, adeM, aacA4, blaSHV-5 by Etest method
Acinetobacter baumannii [10] = assay: Antimicrobial activity against ISAba1 linked with the blaOXA-51-type beta-lactamase harboring Acinetobacter baumannii zeta clonal group isolate 22 expressing ampC, ompA, adeB, adeM, aadA1, aacA4, aacC2, blaSHV-5 by Etest method
Acinetobacter baumannii [11] = assay: Antimicrobial activity against Acinetobacter baumannii eta clonal group isolate 35 expressing ampC, ompA, adeB, adeM by Etest method
Acinetobacter baumannii [12] = assay: Antimicrobial activity against ISAba1 linked with the blaOXA-51-type beta-lactamase harboring Acinetobacter baumannii beta clonal group isolate 10 expressing ompA, adeB, adeM, aacA4, blaSHV-5 by Etest method
Acinetobacter baumannii [13] = assay: Antimicrobial activity against ISAba1 linked with the blaOXA-51-type beta-lactamase harboring Acinetobacter baumannii beta clonal group isolate 15 expressing ompA, adeB, adeM, aacA4, blaSHV-5 by Etest method
Acinetobacter baumannii [14] = assay: Antimicrobial activity against ISAba1 linked with the blaOXA-51-type beta-lactamase harboring Acinetobacter baumannii alpha clonal group isolate 8 expressing ampC, ompA, adeB, adeM, aacC1, aadA1 by Etest method
Acinetobacter baumannii [15] = assay: Antimicrobial activity against Acinetobacter baumannii nu clonal group isolate 34 expressing ampC, ompA, adeB, adeM by Etest method
Acinetobacter baumannii [16] = assay: Antimicrobial activity against Acinetobacter baumannii alpha clonal group isolate 4 expressing ampC, ompA, adeB, adeM, aacC1, aadA1 by Etest method
Acinetobacter baumannii [17] = assay: Antimicrobial activity against Acinetobacter baumannii nu clonal group isolate 31 expressing ampC, ompA, adeB, adeM, aadB, aadA2 by Etest method
Acinetobacter baumannii [18] = assay: Antimicrobial activity against ISAba1 linked with the blaOXA-51-type beta-lactamase harboring Acinetobacter baumannii zeta clonal group isolate 24 expressing ampC, ompA, adeB, adeM, aadA1, aacA4, aacC2, blaSHV-5 by Etest method
Acinetobacter baumannii [19] = assay: Antimicrobial activity against ISAba1 linked with the blaOXA-51-type beta-lactamase harboring Acinetobacter baumannii zeta clonal group isolate 25 expressing ampC, ompA, adeB, adeM, aadA1, aacA4, aacC2, blaSHV-5 by Etest method
Acinetobacter baumannii [20] = assay: Antimicrobial activity against ISAba1 linked with the blaOXA-51-type beta-lactamase harboring Acinetobacter baumannii zeta clonal group isolate 20 expressing ampC, ompA, adeB, adeM, aacC2 by Etest method
Acinetobacter baumannii [21] = assay: Antimicrobial activity against ISAba1 linked with the blaOXA-51-type beta-lactamase harboring Acinetobacter baumannii beta clonal group isolate 13 expressing ompA, adeB, adeM, aacA4, blaSHV-5 by Etest method
Acinetobacter baumannii [22] = assay: Antimicrobial activity against ISAba1 linked with the blaOXA-51-type beta-lactamase harboring Acinetobacter baumannii beta clonal group isolate 18 expressing ompA, adeB, adeM, aacA4, blaSHV-5 by Etest method
Acinetobacter baumannii [23] = assay: Antimicrobial activity against ISAba1 linked with the blaOXA-51-type beta-lactamase harboring Acinetobacter baumannii unique clonal group isolate 40 expressing ampC, ompA, adeB, adeM, aadA1, aacA4, aacC2, blaSHV-5 by Etest method
Acinetobacter baumannii [24] = assay: Antimicrobial activity against ISAba1 linked with the blaOXA-51-type beta-lactamase harboring Acinetobacter baumannii zeta clonal group isolate 23 expressing ampC, ompA, adeB, adeM, aadA1, aacA4, aacC2, aphA6 by Etest method
Acinetobacter baumannii [25] = assay: Antimicrobial activity against ISAba1 linked with the blaOXA-51-type beta-lactamase harboring Acinetobacter baumannii alpha clonal group isolate 7 expressing ampC, ompA, adeB, adeM, blaSHV-5 by Etest method
Acinetobacter baumannii [26] = assay: Antimicrobial activity against ISAba1 linked with the blaOXA-51-type beta-lactamase harboring Acinetobacter baumannii beta clonal group isolate 11 expressing ompA, adeB, adeM, blaSHV-5 by Etest method
Acinetobacter baumannii [27] = assay: Antimicrobial activity against ISAba1 linked with the blaOXA-51-type beta-lactamase harboring Acinetobacter baumannii lambda clonal group isolate 30 expressing ampC, ompA, adeB, adeM, aadB, aadA1 by Etest method
Acinetobacter baumannii [28] = assay: Antimicrobial activity against ISAba1 linked with the blaOXA-51-type beta-lactamase harboring Acinetobacter baumannii beta clonal group isolate 14 expressing ompA, adeB, adeM, aacA4, blaSHV-5 by Etest method
Acinetobacter baumannii [29] = assay: Antimicrobial activity against Acinetobacter baumannii alpha clonal group isolate 5 expressing ampC, ompA, adeB, adeM, aacC1, aadA1 by Etest method
Acinetobacter baumannii [30] = assay: Antimicrobial activity against Acinetobacter baumannii nu clonal group isolate 32 expressing ampC, ompA, adeB, adeM, aadB, aadA2 by Etest method
Acinetobacter baumannii [31] = assay: Antimicrobial activity against ISAba1 linked with the blaOXA-51-type beta-lactamase harboring Acinetobacter baumannii beta clonal group isolate 12 expressing ompA, adeB, adeM, aacA4, aacC2, blaSHV-5 by Etest method
Acinetobacter baumannii [32] = assay: Antimicrobial activity against Acinetobacter baumannii eta clonal group isolate 36 expressing ampC, ompA, adeB, adeM by Etest method
Acinetobacter baumannii [33] = assay: Antimicrobial activity against Acinetobacter baumannii unique clonal group isolate 37 expressing ampC, ompA, adeB, adeM by Etest method
Acinetobacter baumannii [34] = assay: Antimicrobial activity against Acinetobacter baumannii alpha clonal group isolate 2 expressing ampC, ompA, adeB, adeM, aacC1, aadA1 by Etest method
Acinetobacter baumannii [35] = assay: Antimicrobial activity against ISAba1 linked with the blaOXA-51-type beta-lactamase harboring Acinetobacter baumannii lambda clonal group isolate 28 expressing ampC, ompA, adeM, aadB, aadA1 by Etest method
Acinetobacter baumannii [36] = assay: Antimicrobial activity against ISAba1 linked with the blaOXA-51-type beta-lactamase harboring Acinetobacter baumannii zeta clonal group isolate 26 expressing ampC, ompA, adeB, adeM, aadA1, aacA4, aacC2, blaSHV-5 by Etest method
Acinetobacter baumannii [37] = assay: Antimicrobial activity against Acinetobacter baumannii unique clonal group isolate 38 expressing ampC, ompA, adeB, adeM by Etest method
Acinetobacter baumannii [38] = assay: Antimicrobial activity against ISAba1 linked with the blaOXA-51-type beta-lactamase harboring Acinetobacter baumannii zeta clonal group isolate 21 expressing ampC, ompA, adeB, adeM, aacC2, blaSHV-5 by Etest method
Acinetobacter baumannii [39] = assay: Antimicrobial activity against ISAba1 linked with the blaOXA-51-type beta-lactamase harboring Acinetobacter baumannii alpha clonal group isolate 6 expressing ampC, ompA, adeB, adeM, aacC1, aadA1 by Etest method
Acinetobacter baumannii [40] = assay: Antimicrobial activity against ISAba1 linked with the blaOXA-51-type beta-lactamase harboring Acinetobacter baumannii alpha clonal group isolate 1 expressing ampC, ompA, adeB, adeM by Etest method

Molecule `C[C@@H](O)[C@H]1C(=O)N2C(C(=O)O)=C(SCCNC=N)C[C@H]12` [IMIPENEM ANHYDROUS] has an MIC (Acinetobacter baumannii [1]) of over 16 µg/mL, an MIC (Acinetobacter baumannii [2]) of 0.38 µg/mL (≈ 1.27 µM) and an MIC (Acinetobacter baumannii [3]) of 4 µg/mL (≈ 13.4 µM). For the same molecule, the MIC (Acinetobacter baumannii [4]) was 1 µg/mL (≈ 3.34 µM), the MIC (Acinetobacter baumannii [5]) was 0.25 µg/mL (≈ 0.835 µM) and the MIC (Acinetobacter baumannii [6]) was 12 µg/mL (≈ 40.1 µM). It also gave an MIC (Acinetobacter baumannii [7]) of 16 µg/mL (≈ 53.4 µM), an MIC (Acinetobacter baumannii [8]) of 0.25 µg/mL (≈ 0.835 µM) and an MIC (Acinetobacter baumannii [9]) of over 16 µg/mL. It also gave an MIC (Acinetobacter baumannii [10]) of 16 µg/mL (≈ 53.4 µM), an MIC (Acinetobacter baumannii [11]) of 0.25 µg/mL (≈ 0.835 µM) and an MIC (Acinetobacter baumannii [12]) of 16 µg/mL (≈ 53.4 µM). It also gave an MIC (Acinetobacter baumannii [13]) of over 16 µg/mL, an MIC (Acinetobacter baumannii [14]) of 6 µg/mL (≈ 20 µM) and an MIC (Acinetobacter baumannii [15]) of 0.25 µg/mL (≈ 0.835 µM). The MIC (Acinetobacter baumannii [16]) was 0.38 µg/mL (≈ 1.27 µM), the MIC (Acinetobacter baumannii [17]) was 0.25 µg/mL (≈ 0.835 µM) and the MIC (Acinetobacter baumannii [18]) was over 1.5 µg/mL. The MIC (Acinetobacter baumannii [19]) was over 1.5 µg/mL, the MIC (Acinetobacter baumannii [20]) was 1 µg/mL (≈ 3.34 µM) and the MIC (Acinetobacter baumannii [21]) was over 16 µg/mL. It also gave an MIC (Acinetobacter baumannii [22]) of 12 µg/mL (≈ 40.1 µM), an MIC (Acinetobacter baumannii [23]) of over 32 µg/mL and an MIC (Acinetobacter baumannii [24]) of over 32 µg/mL. The MIC (Acinetobacter baumannii [25]) was 4 µg/mL (≈ 13.4 µM), the MIC (Acinetobacter baumannii [26]) was over 32 µg/mL and the MIC (Acinetobacter baumannii [27]) was 8 µg/mL (≈ 26.7 µM). The MIC (Acinetobacter baumannii [28]) was over 16 µg/mL, the MIC (Acinetobacter baumannii [29]) was 0.38 µg/mL (≈ 1.27 µM) and the MIC (Acinetobacter baumannii [30]) was 0.25 µg/mL (≈ 0.835 µM). The MIC (Acinetobacter baumannii [31]) was 32 µg/mL (≈ 107 µM), the MIC (Acinetobacter baumannii [32]) was 0.25 µg/mL (≈ 0.835 µM) and the MIC (Acinetobacter baumannii [33]) was 0.5 µg/mL (≈ 1.67 µM). For the same molecule, the MIC (Acinetobacter baumannii [34]) was 0.38 µg/mL (≈ 1.27 µM), the MIC (Acinetobacter baumannii [35]) was 16 µg/mL (≈ 53.4 µM) and the MIC (Acinetobacter baumannii [36]) was over 1.5 µg/mL. The MIC (Acinetobacter baumannii [37]) was 0.19 µg/mL (≈ 0.635 µM), the MIC (Acinetobacter baumannii [38]) was 6 µg/mL (≈ 20 µM) and the MIC (Acinetobacter baumannii [39]) was 3 µg/mL (≈ 10 µM). For the same molecule, the MIC (Acinetobacter baumannii [40]) was 2 µg/mL (≈ 6.68 µM).
